The values below come from patent US4224333A, “Antihypertensive 2H-indol-2-ones” (Roussel Uclaf, priority 1978, dated 1980).

Series [1] deals with spontaneous hypertendus male rats of the Okamto strain. The series is described as follows: Antihypertensive activity in spontaneously hypertensive rats, oral (tail arterial pressure). The format is in vivo, rat. To be noted: 50 mg/kg oral, hydrochloride form; for % Variation of arterial pressure 1 hour after administration: 1 h on first day; for % Variation of arterial pressure 4 hours after administration: 4 h on first day; for % Variation of arterial pressure, 10th day: 24 h after last administration. The procedure:
The arterial pressure was measured before and after the said administration on the rat's tail with a pneumatic collar connected to an electronic translator of pressure and the results of Table II compare the initial arterial pressure with the arterial pressure 1,4 hours of the first day and 24 hours after the last administration.

Series [2] can be described thus: Acute toxicity (LD50) in mice, intraperitoneal. The note with it: mouse, in vivo, ip, suspension in carboxymethyl cellulose, observed one week. The procedure:
The acute toxicity of the products was determined on groups of 10 mice weighing between 18 and 22 g and the products were intraperitoneally administered in a suspension in carboxymethyl cellulose.

The subject of series [3] is male rats of the Sprague Dawley S.P.F. strain. Nature of the series: Hypotensive activity (carotid arterial pressure) in anesthetized rats, intravenous. The format is in vivo, rat. The note with it: 1 mg/kg i.v., hydrochloride form. The procedure: The hypotensive activity was determined on groups of male rats of the Sprague Dawley S.P.F. strain weighing about 300 g which had been anesthesized with an intraveinous administration of 50 mg/kg of nembutal. The test products in their hydrochloride form were administered intraveinously in the jugular vein and the carotidiene arterial pressure was measured before and after the said administration. The variations between the initial arterial pressure and the pressure after the administration was determined as well as the time of duration of the activity and the results are reported in Table I.

Where [4] appears, read: test was for 3 days administration.

Structures are written as SMILES. Structures can show the parent of a compound that is named as a salt.

A word on the LD50: it is the dose expected to kill half of the subjects tested.

Regarding `O=C1Nc2ccccc2C1C1CCN(C[C@H](O)[C@H]2COc3ccccc3O2)CC1` (relative stereo) [Example 2, (dl) erythro 1,3-dihydro-3-{1-[2-(2,3-dihydro-1,4-benzodioxin-2-yl)-2-hydroxyethyl]-piperidin-4-yl}-2H-indol-2-one hydrochloride], in series [1] (9 days administration), the “% Variation of arterial pressure 1 hour after administration” value (from here on “% Variation of arterial pressure 1 hour”) is -23%; the “% Variation of arterial pressure 4 hours after administration” value (from here on “% Variation of arterial pressure 4 hours”) is reported as -22%; the “% Variation of arterial pressure, 10th day” value (shortened to “% Variation … 10th day”) is -9%. Also, the LD50 at 168 h in series [2] was approximately 125 mg/kg. The “% change in arterial pressure” value in series [3] (at 5 min) is -30%. Further, in series [3] (at 60 min), the “% change in arterial pressure” value is -20%.

In the case of `O=C1Nc2ccccc2C1C1CCN(C[C@H](O)[C@@H]2COc3ccccc3O2)CC1` (relative stereo) [Example 3, (dl) threo 1,3-dihydro-3-{1-[2-(2,3-dihydro-1,4-benzodioxin-2-yl)-2-hydroxyethyl]-piperidin-4-yl}-2H-indol-2-one hydrochloride], the LD50 at 168 h in series [2] was approximately 125 mg/kg. The results for the “% change in arterial pressure” value in series [3] (at 1 min) and in series [3] (at 15 min) were -20% and -10%, respectively.

As to `CN1C(=O)C(C2CCN(C[C@H](O)[C@H]3COc4ccccc4O3)CC2)c2ccccc21` (relative stereo) [Example 4, (dl) erythro 1,3-dihydro-3-{1-[2-(2,3-dihydro-1,4-benzodioxin-2-yl)-2-hydroxyethyl]-piperidin-4-yl}-1-methyl-2H-indol-2-one hydrochloride], the “% Variation of arterial pressure 1 hour” value in series [1] (setting [4]) was -23%. In series [1] (setting [4]), the “% Variation of arterial pressure 4 hours” value was -31%. In series [1] (setting [4]), the “% Variation … 10th day” value was -16%. Further, the LD50 at 168 h in series [2] was approximately 200 mg/kg. Besides, the “% change in arterial pressure” value in series [3] (at 1 min) is given as -28%; in series [3] (at 5 min), -23%; in series [3] (at 10 min), -26%; in series [3] (at 30 min), -24%.

Consider `Cl.O=C1Nc2ccccc2C1C1CCN(CC(O)C2COc3ccccc3O2)CC1` (centres unmarked) [Example 1, 3-{1-[2-(2,3-dihydro-1,4-benzodioxin-2-yl)-2-hydroxyethyl]-piperidin-4-yl}-1,3-dihydro-2H-indol-2-one hydrochloride], for which, in series [1] (9 days administration), the “% Variation of arterial pressure 1 hour” value is recorded as -29%; the “% Variation of arterial pressure 4 hours” value is on record as -27%; the “% Variation … 10th day” value is -8%. The LD50 at 168 h in series [2] was approximately 150 mg/kg. Besides, the “% change in arterial pressure” value in series [3] (at 1 min) is reported as -20%. Also, the “% change in arterial pressure” value in series [3] (at 45 min) is recorded as -10%.
